Where two headings read alike, the source gives them in different places.

The text below walks through data of publication PMC11878344 (Angewandte Chemie (International Ed. in English), 2025).

Data set [1] deals with T1, NanoLuc luciferase MAGL fusion protein in HEK293A cells (Homo sapiens, UniProt Q99685).
T1 construct: expressed in transfected cells
T1 sequence (Q99685 1-303): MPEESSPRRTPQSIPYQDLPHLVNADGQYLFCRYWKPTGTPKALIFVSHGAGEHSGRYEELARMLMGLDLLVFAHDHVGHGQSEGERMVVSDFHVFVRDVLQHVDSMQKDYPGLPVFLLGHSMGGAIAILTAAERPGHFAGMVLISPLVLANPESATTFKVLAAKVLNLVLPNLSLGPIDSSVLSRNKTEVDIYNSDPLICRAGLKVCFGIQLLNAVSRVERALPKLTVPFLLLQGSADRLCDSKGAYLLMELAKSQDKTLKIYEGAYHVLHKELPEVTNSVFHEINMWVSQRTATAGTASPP
Put plainly: Cellular MAGL NanoBRET target engagement assay. The format is cell-based. The conditions noted are these: Table 2; mean of three independent measurements ± SD; read-out: HEK 293 nanoBRET IC50±SD. On the procedure: We, therefore, confirmed cellular MAGL target engagement in a nanoBRET assay using live HEK293 cells.[39] […] To overcome the low cellular potency of 4, we exploited the modular construction principle to modulate unfavorable physicochemical properties and investigated less polar, privileged head groups[23, 33, 40] (Supporting Information Table S4). […]
This assay was performed as first described before.[39]
Compounds were profiled by a novel cellular MAGL NanoBRET™ Target Engagement assay, which measures the apparent affinity of test compounds by competitive displacement of a Roche-developed Tracer (WO2021058443, Example 21)[21], reversibly bound to a NanoLuc® luciferase MAGL fusion protein in cells.
A HEK293A stable cell line expressing NanoLuc_MAGL was established at Roche and assigned as HEK293A_NanoLuc_MAGL clone #43. A fixed concentration of tracer is added to cells expressing the NanoLuc®_MAGL fusion protein to generate a BRET reporter complex. The introduction of competing compounds results in a dose-dependent decrease in NanoBRET™ energy transfer, which allows quantification of the intracellular affinity of the target protein for the […]
HEK293A_NanoLuc_MAGL clone #43 cells were cultured in DMEM (Gibco 31966) with 10% FBS and 800 ug/ml G418. The NanoBRET assay was performed by seeding 5000 cells/well in Costar low-volume white 384-well plate in assay buffer (1% FBS in HBSS), followed by adding 50 nM final concentration of tracer and serial dilutions of test compounds. After 2 hours of incubation, Nanoluciferase substrates and extracellular inhibitors were added following the manufacturer's protocol (Promega, #N2520), and the NanoBRET signaling were quantified with the Paradigm

Data set [2] deals with T2, human MAGL (Homo sapiens, UniProt Q99685).
T2 sequence (Q99685 1-303): T1 sequence (Q99685 1-303)
Put plainly: In vitro MAGL inhibition assay (2-AG hydrolysis followed by mass spectrometry). The data set is classed as biochemical. As for the experimental part: (§1) 4. Experimental Details of Biochemical Assays and Crystal Structure
(§2) In Vitro MAGL Inhibition Assay
(§3) Compounds were profiled for MAGL inhibitory activity by determining the enzymatic activity by following the hydrolysis of the natural substrate 2-arachidonoylglycerol (2-AG), resulting in arachidonic acid, which can be followed by mass spectrometry. The 2-AG assay was carried out in 384 well assay plates (PP, Greiner Cat# 784201) in a total volume of 20 µL. Compound dilutions were made in 100% DMSO (VWR Chemicals 23500.297) in a polypropylene plate in 3-fold dilution steps to give a final concentration range in the assay from 12.5 µM to 0.8 pM. 0.25µL compound dilutions (100% DMSO) were added to 9 µL MAGL in assay buffer (50 mM TRIS (GIBCO, 15567-027), 1 mM EDTA (Fluka, 03690-100 mL), 0.01% (v/v) Tween. After shaking, the plate was incubated for 15 min at RT. To start the reaction, 10 µL 2-arachidonoylglycerol in assay buffer was added. The final concentrations in the assay were 50 pM MAGL and 8 µM 2-arachidonoylglyerol. After shaking and 30 min incubation at RT, the reaction was quenched by the addition of 40µL of ACN containing 4 µM of d8-arachidonic acid. The amount of arachidonic acid was traced by an online SPE system (Agilent Rapidfire) coupled to a triple quadrupole mass spectrometer (Agilent 6460). A C18 SPE cartridge (G9205A) was used in an ACN/water liquid setup. The mass spectrometer was operated in negative electrospray mode following the mass transitions 303.1 → 259.1 for arachidonic acid and 311.1 → 267.0 for d8-arachidonic acid. The activity of the compounds was calculated based on the ratio of intensities [arachidonic acid / d8- […]
(§4) This assay was performed as first described before.[39] […]

The target in data set [3] is T3, mouse MAGL (Mus musculus, UniProt O35678).
T3 sequence (O35678 1-303): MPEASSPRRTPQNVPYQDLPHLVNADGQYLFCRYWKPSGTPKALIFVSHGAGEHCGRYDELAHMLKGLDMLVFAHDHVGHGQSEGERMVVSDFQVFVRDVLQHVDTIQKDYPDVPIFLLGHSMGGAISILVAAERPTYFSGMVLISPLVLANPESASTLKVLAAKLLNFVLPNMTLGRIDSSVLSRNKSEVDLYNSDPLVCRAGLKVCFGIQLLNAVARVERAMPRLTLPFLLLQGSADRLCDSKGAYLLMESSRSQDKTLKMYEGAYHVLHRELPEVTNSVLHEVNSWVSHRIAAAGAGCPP
Described as above. The data set is classed as biochemical. On the procedure: as §1, §2, §3, §4

The nature of data set [4]: Fluorescence excitation/absorption and emission maxima. The data set is classed as physicochemical. The following applies: PBS pH 7.4. The text has this: Figure S8. Fluorescence excitation and emission spectra of the utilized fluorescent reporters in PBS pH 7.4. Spectra l differences between probes carrying the same fluorophore were […]
Table S6. Fluorescence excitation, emission maxima, and Stokes-shift in PBS pH 7.4 for the used fluorophores, respectively. difference s between probes with the same fluorophore were […]
λmax Excitation [nm] λmax Emission [nm] Stokes-shift [nm]
(1 picture or pasted object on this page, not shown here)

The mark [5] stands for this setting: Table 2, mean of three independent measurements ± SD, read-out: hMAGL IC50±SD.
Setting [6] is: Table 2, mean of three independent measurements ± SD, read-out: mMAGL IC50±SD.

Regarding `CN(C)c1ccc2c(c1)[Si](C)(C)c1cc(N(C)C)ccc1C21OC(=O)c2ccc(C(=O)NCCCCCOc3ccccc3CC3CC4(C3)CN(C(=O)N3CC5(COC(=O)N5)C3)C4)cc21` (stereo not drawn) [Compound 10], the IC50 in data set [1] was 285 ± 240 nM; in data set [2] (Supporting Information Tables S1-S5, read-out: IC50 hMAGL), 0.187 nM; in data set [2] (setting [5]) it was 0.15 ± 0.11 nM; in data set [3] (Supporting Information Tables S1-S5, read-out: IC50 mMAGL), 0.155 nM; in data set [3] (setting [6]), 0.16 ± 0.09 nM. The “λmax Em (fluorescence emission maximum)” value in data set [4] came out at 673 nm. Moreover, the “λmax Ex (fluorescence excitation maximum)” value in data set [4] amounted to 654 nm.

Turning to `CN(C)c1ccc2c(c1)[Si](C)(C)c1cc(N(C)C)ccc1C21OC(=O)c2ccc(C(=O)NCCCCCOc3ccccc3CC3CC4(C3)CN(C(=O)OC(C(F)(F)F)C(F)(F)F)C4)cc21` (stereo not drawn) [Compound 12], the values for the half-maximal inhibitory concentration (IC50) in data set [1], in data set [2] (setting [5]) and in data set [3] (setting [6]) were more than 1000 nM, 1.15 ± 0.29 nM and 1.35 ± 0.3 nM, respectively. Also, in data set [4], the “λmax Em (fluorescence emission maximum)” value is 673 nm. In addition, the “λmax Ex (fluorescence excitation maximum)” value in data set [4] amounted to 654 nm.

Broadly, the IC50 is the midpoint of a concentration-inhibition curve.
